In PMC6539809, “Development of Oxygen-Bridged Pyrazole-Based Structures as Cannabinoid Receptor 1 Ligands” (Molecules, 2019):

Assays:
[1] = target: T1, CB1Rs of mouse vas deferens (Mus musculus, UniProt P47746); assay: Isolated organ assay: electrically evoked contractions of mouse vas deferens; details: for Kb: read-out: Antagonist potency pA2 (converted)
T1 construct: naturally expressed prejunctional neuronal CB1Rs; from tissue; host or cells: isolated vas deferens of male albino CD1 mice
Experimental: Vas deferens was obtained from male albino CD1 mice weighing 30 to 40 g. Tissue was mounted in a 10 mL organ bath at an initial tension of 0.5 g using a previously described method [16]. The bath contained Krebs-Henseleit solution (118.2 mM NaCl, 4.75 mM KCl, 1.19 mM KH2PO4, 25.0 mM NaHCO3, 11.0 mM glucose, and 2.54 mM CaCl2), which was kept at 37 °C and bubbled with 95% O2 and 5% CO2. Isometric contractions were evoked by stimulation with 0.5 sec trains of three pulses of 110% maximal voltage (train frequency, 0.1 Hz; pulse duration, 0.5 msec) through platinum electrodes attached to the upper end of each bath and a stainless-steel electrode attached to the lower end. Stimuli were generated using a Grass S88K stimulator and then amplified (multiplexing pulse booster 316S; Ugo Basile, Comerio, Italy) and divided to yield separate outputs to four organ baths. Contractions were monitored using a computer equipped with a data recording and analysis system (PowerLab 400) linked via preamplifiers (QuadBridge) to an F10 transducer (Biological Instruments, Besozzo, Italy). Each tissue was subject to several periods of stimulation. […] The stimulator was then switched off for 15 min, after which the tissues were subjected to further periods of stimulation each lasting 5 min and separated by a stimulation-free period. The compounds to be assayed were added once the contractile responses to electrical stimulation were reproducible. Preparations were exposed to cumulative increasing concentrations of the compounds to obtain concentration-response curves in the case of CB1 agonist (and partial agonist) compounds. […] Inhibition of the electrically evoked twitch response was expressed in percentage terms and was calculated by comparing the amplitude of the twitch response after each addition of the agonist compound (alone or in the presence of a potential CB1 antagonist) with the amplitude detected in absence of the compounds to be assayed (basal value). The pA2 values for competitive antagonism were calculated by Schild regression analysis [37]. Data were plotted as log antagonist concentration versus log [(antagonist concentration/agonist concentration)-1].

C57Bl6/J mice = assay: Acute food intake in fasted mice; assay type: in vivo, mouse; details: for Food intake effect over time: 10 mg/kg i.p., at 2 h and 3 h; for Activity on food intake compared to rimonabant: dose of 10 mg/kg i.p.
Experimental: To further evaluate the potential application of these CB1 antagonists in the control of food intake and in obesity treatment, compound 1b was preliminarily tested in comparison with SR141716A in an acute in vivo assay using C57Bl6/J mice. The evaluation was carried out according to the animal model previously reported by Di Marzo [19].
It is well known that CB1Rs mediate the hyperphagic effect of cannabinoids. […] To test the potential anti-obesity effect of the new CB1 antagonist 1b we performed food intake experiments according to the acute animal model described by Di Marzo [19]. For a comparison we also reported the results concerning the assumed lead compound of this new series, derivative 1a.
A widely described method was used for the screening of the new CB1 antagonists in the food intake animal model. C57Bl6/J mice weighing 20–25 g were housed individually on a reverse light-dark cycle in a room with temperature and humidity control. The mice were fasted for 18 h before testing. Vehicle or CB1 antagonists were administered by an intraperitoneal injection and 15 min later a known amount of food was presented. Food pellets were weighed after each hour for three hours. Rimonabant was used as internal positive control in order to evaluate the efficacy of each compound. All animal experiments were performed according to the UE (CEE N° 86/609) guidelines for the care and use of experimental animals.
Two-way ANOVA with Bonferroni post-testing was performed using GraphPad Prism version 5.00 for Windows (GraphPad Software, San Diego CA, USA).

CB1 receptor = target: T2, CB1 receptor (Mus musculus, UniProt P47746); details: [3H]-CP 55,940, mouse brain (minus cerebellum) homogenate; lead compound; read-out: KiCB1; cited from earlier work
T2 construct: from tissue; host or cells: mouse (CD1) brain minus cerebellum, membrane homogenate

CB2 receptor = target: T3, CB2 receptor (Mus musculus, UniProt P47936); details: [3H]-CP-55,940, mouse spleen homogenate; lead compound; read-out: KiCB2; cited from earlier work
T3 construct: from tissue; host or cells: mouse (CD1) spleen, membrane homogenate

obese mice = system: obese mice; set-up: method as in PMID 23756200; details: chronic treatment of obese mice; cited from earlier work
[2] = set-up: method as in PMID 23756200; details: cited from earlier work
[3] = system: P-ERK 1/2 expression in mouse neuroblastoma N1E-115 cells (CB1Rs); assay: P-ERK 1/2 expression in N1E-115 cells (Western blot); assay type: cell-based
Experimental: Agonist or antagonist activity of the new derivatives towards CB1Rs were assayed through in vitro testing based on the determination of phosphorylated ERK 1/2 (P-ERK 1/2) expression in a mouse neuroblastoma N1E-115 cell line. As previously reported, this cell line expresses CB1Rs but not CB2Rs; moreover, it has been shown that the exposure of N1E-115 cells to the cannabinoid agonists arachidonyl-2-chloroethylamide (ACEA) and WIN 55-212,2 induces a rapid phosphorylation and activation of the ERK 1/2. The addition of CB1 antagonists as SR141716A abolishes the response induced by the cannabinoid agonists.
N1E-115 cells were grown at 37 °C in humidified 5% CO2 in Dulbecco’s Modified Eagle’s Medium (high glucose supplemented with 10% fetal bovine serum (FBS), 1 μg/mL penicillin-streptomycin, 2 mM L-glutamine, 2.5 μg/mL amphotericin B and 50 μg/mL gentamicin). […] Tested and reference compounds were dissolved in Dulbecco’s phosphate buffered saline (D-PBS) with 1% DMSO and treatments were performed in a volume of 10 μL/mL of cell suspension.
P-ERK 1/2 expression was determined through Western blot analysis according to the previously reported procedure. One-way ANOVA was performed as a statistical analysis using the Graph Pad Prism program (San Diego, CA, USA).
The same procedure was adopted to determine CB1 specific antagonism for compounds which had no effect on P-ERK 1/2 expression themselves. In these last cases, WIN55,212-2 at 25 nM as a reference cannabinoid agonist agent and the new CB1 antagonists at 150–200 nM were employed.

CD1 mice = assay: Gastrointestinal transit (GIT), carmine marker; assay type: in vivo, mouse
Excerpt: The mouse isolated vas deferens is a nerve-smooth muscle preparation that serves as a highly sensitive and quantitative functional in vitro bioassay for cannabinoid CB1R agonists. The effect of CB1 agonists is related to the action on naturally expressed prejunctional neuronal CB1Rs to inhibit release of the contractile neurotransmitters, noradrenaline and ATP, which is provoked by electrical stimulation. It has been shown that CB1 antagonist derivatives are able to block or reduce the inhibition of the electrically evoked contraction amplitude of the vas deferens induced by CB1 agonists, with parallel dextral shifts in CB1R agonist log concentration-response curves in electrically stimulated tissues. According to previous studies concerning cannabinoid agents, a gastrointestinal transit test was adopted to confirm CB1 antagonism. […] Moreover, the capability of CB1 antagonist compounds both to block the constipation effect induced by cannabinoid agonists and to themselves increase themselves gastrointestinal motility has been reported.
The same procedure previously reported by Murineddu et al. was adopted to evaluate the effect of the compounds on GIT. CD1 mice weighing 30–35 g were used. Carmine (Sigma Chemical Co, St. Louis, MO, USA) was suspended (6% wt/v) in distilled water containing 0.5% methylcellulose and administered by gavage at the dose of 0.3 mL/mouse. Briefly, after 20 min from carmine administration, mice were sacrificed by cervical dislocation and the stomach and small intestine were removed and the omentum was separated, avoiding stretching. The length of the intestine was measured starting from the pyloric sphincter to the ileocecal junction. The distance travelled by the head of the marker was measured and expressed as a percent of the total length of the small intestine. Using this procedure, the marker was consistently found at approximately 50% of the small intestine, 20 min after its administration to naive mice.
20 min later, mice were killed by dislocation cervical and intestines were removed. […] The length of the intestine from the pyloric sphincter to the ileocecal junction and the distance travelled by the carmine front were both measured and recorded. Groups of n = 10 mice were used in each experiment.
Statistical analyses were performed by one-way ANOVA followed by Newman-Keuls post-hoc comparison.

rats = system: rats; set-up: method as in PMID 27521837; details: i.p. dose of 0.125 mg/kg; cited from earlier work
[4] = system: ventral tegmental area (VTA) dopamine neurons projecting to the NAc shell; set-up: method as in PMID 27521837; details: i.v. administration of high doses; cited from earlier work

T1 sequence (P47746 whole entry): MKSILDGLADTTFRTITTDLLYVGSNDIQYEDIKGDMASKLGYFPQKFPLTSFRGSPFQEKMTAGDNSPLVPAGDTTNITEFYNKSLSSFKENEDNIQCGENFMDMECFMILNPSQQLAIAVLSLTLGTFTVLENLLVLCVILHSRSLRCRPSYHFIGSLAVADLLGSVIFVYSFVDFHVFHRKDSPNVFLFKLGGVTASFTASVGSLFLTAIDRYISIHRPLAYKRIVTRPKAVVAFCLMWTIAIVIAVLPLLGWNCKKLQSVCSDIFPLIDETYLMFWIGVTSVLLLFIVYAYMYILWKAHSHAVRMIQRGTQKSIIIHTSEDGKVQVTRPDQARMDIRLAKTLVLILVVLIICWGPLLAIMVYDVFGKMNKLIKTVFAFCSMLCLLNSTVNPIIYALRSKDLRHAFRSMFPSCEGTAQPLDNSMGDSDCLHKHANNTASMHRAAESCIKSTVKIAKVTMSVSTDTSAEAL
T3 sequence (P47936 whole entry): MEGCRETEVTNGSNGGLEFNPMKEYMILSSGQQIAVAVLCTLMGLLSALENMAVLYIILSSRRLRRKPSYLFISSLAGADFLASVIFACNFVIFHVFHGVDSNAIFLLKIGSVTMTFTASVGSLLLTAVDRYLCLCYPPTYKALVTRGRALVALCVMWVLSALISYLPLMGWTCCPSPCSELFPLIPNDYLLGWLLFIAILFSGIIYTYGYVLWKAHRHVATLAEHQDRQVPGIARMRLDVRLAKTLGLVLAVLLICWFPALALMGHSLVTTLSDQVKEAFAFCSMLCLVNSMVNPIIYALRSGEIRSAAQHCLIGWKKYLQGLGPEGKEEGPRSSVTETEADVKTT
T2 sequence (P47746 whole entry): as the sequence (P47746 whole entry) above

Row | Structure (SMILES) | Kb [1] | Food intake effect over time (C57Bl6/J mice) | Activity on food intake compared to rimonabant (C57Bl6/J mice) | Ki (CB1 receptor) | Ki (CB2 receptor) | Food intake and body weight on chronic treatment (obese mice) | Blood-brain barrier (BBB) permeability [2] | Counteraction of the WIN 55,212-2-induced increase of P-ERK 1/2 expression ([3]; 5 min pre-treatment with compound (150–200 nM; 1b 200 nM), then WIN 55,212-2 25 nM for 10 min) | Change of electrically-evoked contractions versus basal response, compound alone ([1]; up to a concentration of 10^−6 M, 30 min incubation) | Increase in gastrointestinal transit in comparison to vehicle-treated mice (CD1 mice; 0.5–1.0 mg/kg i.p.) | Effect on GIT in combination with WIN 55,212-2 (CD1 mice; WIN 55,212-2 0.5 mg/kg i.p.) | Observable side effects / behavioural effects (C57Bl6/J mice; 20 mg/kg (highest assayed dosage)) | Food intake compared to vehicle (C57Bl6/J mice; starting from a dose of 3 mg/kg i.p., fasted mice) | Food intake and body weight (rats) | Effect on the WIN-55,212-2 action on VTA dopamine neuron activity [4] | Concentration up to which a dose response effect on P-ERK 1/2 expression was highlighted ([3]; 10 min exposure, N1E-115 cells) | Effect on P-ERK 1/2 expression (agonist activity towards CB1) ([3]; compound alone, 10 min exposure, 1b–d at concentrations up to 1 μM) | Maximum inhibition of the amplitude of electrically-evoked contractions ([1]; cumulative concentration-response curve) | melting point
1 | O=C(NN1CCCCC1)c1nn(-c2ccc(Cl)cc2Cl)c2c1CCOc1cc(Cl)ccc1-2 [Compound 1a, 8-chloro-1-(2,4-dichlorophenyl)-N-piperidin-1-yl-4,5-dihydrobenzo-1H-6-oxa-cyclohepta[1,2-c]pyrazole-3-carboxamide] | 7.94 nM | still markedly decreased food intake | Significant increments of the activity | 10.3 ± 0.41 nM | > 5000 nM | reduction of food intake and body weight | poor |  |  |  |  |  |  |  |  |  |  |  | 
2 | O=C(NC1CCCCC1)c1nn(-c2ccc(Cl)cc2Cl)c2c1CCOc1cc(Cl)ccc1-2 [Compound 1b] | 0.794 nM | still markedly decreased food intake | Significant increments of the activity | 40 ± 7 nM | 3725 ± 25 nM |  |  | CB1 antagonist activity | No agonist activity | 65–70% | significantly blocked | absence of observable side effects | significantly reduced food intake | reduced both food intake and body weight | reverted the effect of the agonist WIN-55,212-2 |  |  |  | 
3 | CC1(C)C2CCC(CNC(=O)c3nn(-c4ccc(Cl)cc4Cl)c4c3CCOc3cc(Cl)ccc3-4)C1C2 (stereo not drawn) [Compound 1e, 8-Chloro-1-(2,4-dichlorophenyl)-N-(6,6-dimethyl-bicyclo[3.1.1]hept-2-yl-methyl)-4,5-dihydrobenzo-1H-6-oxa-cyclohepta[1,2-c]pyrazole-3-carboxamide] |  |  |  |  |  |  |  |  |  |  |  |  |  |  |  | ≤ 75 nM | CB1 agonist activity | around 60% | 142 to 143 °C
